Measured values reported in patent US20150258059A1, “ANTIMICROBIAL AND RADIOPROTECTIVE COMPOUNDS” (BioDiem, Ltd, priority 2001, published 2015).
Values after ≈ are worked out from the molar mass of the structure shown. Like-named read-outs stand apart in the source and are kept apart here.

Columns and labels:
S. pyogenes = experiment: Broth dilution bioassay, low inoculum; assay type: cell-based; conditions: in MHB
Haemophilus influenzae = experiment: NCCLS broth microdilution MIC/MBC; assay type: cell-based
Rhodotorula rubra [1] = experiment: microbe, parasite or virus in culture; assay type: cell-based; conditions: for MIC: Rhodotorula
[2] = system: C. guillermondii RMIT 176; experiment: M38-P microdilution MIC/MFC; assay type: cell-based; conditions: Table 16, 24 h, 35° C.
[3] = system: Corynebacterium xerosis RMIT; experiment: NCCLS broth microdilution MIC/MBC; assay type: cell-based; conditions: for MIC: Corynebacterium xerosis
Rhodotorula rubra [4] = experiment: NCCLS broth macro-dilution MIC/MFC (RPMI); assay type: cell-based; conditions: Table 10, 4 day, 30° C.
[5] = Blood levels after single-dose oral administration, UV spectroscopy; assay type: in vivo, Sprague-Dawley rats; conditions: for concentration at 4 h / concentration at 8 h: Sprague-Dawley, rat, serum, oral, read-out: Blood Level of Compound (1), Mean
Description: The aim of this example was to establish absorption and blood levels of Compound (1) in the rat after a single-dose, oral administration.
Sprague-Dawley rats (6 w/o, delivered 30 Jan, 2001) were acclimatized for 6 days in the Animal Facility under standardized environmental conditions (22° C. ±3° C., rel hum 30-70%, artificial light, 12 hrs light/12 hrs dark). Rats were fed a conventional laboratory diet with food and water ad lib and caged 5 rats per cage.
Compound (1) was prepared as an aqueous suspension in sterile LPW. At higher concentrations the suspension was sonicated to reduce particle size sufficiently to pass through the gavage needle.
Compound (1) suspensions and the water control were administered at approx […], in a single. One control and five treatment rats were weighed immediately before each dose administration, the dose volume calculated and the dose delivered by gavage (22 gauge stainless steel, smooth-balled end attached to a syringe).
Approximately 100-200 μL of blood (microfuge tube) was removed from the tail at 4 and 8 hours. Tails were prewarmed using a heat lamp and snipped at the tip with a large scalpel. Blood was massaged into a microfuge tube. Twenty four hour blood samples were not attempted because of the difficulty of snipping scarred tails and the distress caused to rats.
Blood was allowed to clot, centrifuged in a microfuge for 3 minutes (speed 14) and the serum separated and stored at −20° C.
Samples for treatment groups and for controls were thus pooled and a mean level of Compound (1) for each treatment group determined.
Compound (1) was extracted (x2) from serum by toluene and absorbance measured at 370 nm (Hitachi U2000). A spiked control using 100 μg/mL Compound (1) in 50% methanol/water (V/V) and untreated controls were also assayed.

Staphylococcus aureus = experiment: Agar plug diffusion, zone of retardation; conditions: plug impregnated at 0.5%
[6] = system: six bacterial test cultures; assay type: cell-based
[7] = system: Staphylococcus aureus strain 674; experiment: Impregnated agar serial double dilutions; conditions: meat peptone agar
Bacteroides fragilis = experiment: NCCLS broth microdilution MIC/MBC; assay type: cell-based; conditions: for MIC: Bacteroides fragilis
Salmonella typhimurium = experiment: Agar plug diffusion, zone of retardation; conditions: plug impregnated at 0.5%
Klebsiella pneumoniae [8] = experiment: NCCLS broth microdilution MIC/MBC; assay type: cell-based; conditions: for MIC: Klebsiella pneumoniae
Candida albicans = experiment: NCCLS broth macro-dilution MIC/MFC (RPMI); assay type: cell-based; conditions: Table 10, 4 day, 30° C.
[9] = system: S. aureus-clinical isolate 1; experiment: microbe, parasite or virus in culture; assay type: cell-based
From the text: (§1) NCCLS-USA Standard Method—Broth microdilution (or macrodilution) (Mueller-Hinton).
(§2) Inoculum 1-4×10^4 cfu (or −4×10^5 cfu). Ciprofloxacin test control. Chlorhexidine values added for disinfectant and antiseptic activity comparison.

[10] = system: S. aureus-clinical isolate 2; experiment: microbe, parasite or virus in culture; assay type: cell-based
From the text: as §1, §2

Klebsiella pneumoniae [11] = experiment: Agar plug diffusion, zone of retardation; conditions: plug impregnated at 0.5%
Cryptococcus neoformans = experiment: M38-P microdilution MIC/MFC; assay type: cell-based; conditions: Cryptococcus neoformans, Table 16, 24 h, 35° C., read-out: MIC
Epidermophyton floccosum = experiment: NCCLS broth macro-dilution MIC/MFC (RPMI); assay type: cell-based; conditions: Table 10, 7 day, 30° C.
[12] = system: Shigella flexneri M-2A6907; experiment: Sensitivity of strains: suppression of growth; assay type: cell-based; conditions: Compound (1) 1.0%; antibiotics disc method
Mycobact tub. H.37RV = experiment: Anti-TB effect, serial double dilution in liquid medium; assay type: cell-based, M tuberculosis; conditions: read-out: Minimal Inhibitory Concentration
[13] = system: Klebsiella pneumoniae strain 312; experiment: Impregnated agar serial double dilutions; conditions: meat peptone agar
[14] = system: Campylobacter jejuni RMIT FF3; experiment: NCCLS broth microdilution MIC/MBC; assay type: cell-based; conditions: Table 9, 48 h
[15] = Table 19, 24 H, 35° C., O2-MICRO METHOD

## C/C(=C\c1ccc2c(c1)OCO2)[N+](=O)[O-] [Compound (1)]
S. pyogenes
  concentration inhibiting low inoculum: 1 µg/mL
Haemophilus influenzae; Haemophilus influenzae, Table 9, 35° C., 24 hours, read-out: MIC
  MIC: 0.125 mg/L (≈ 0.603 µM)
Haemophilus influenzae; Haemophilus influenzae, Table 17, 2 or 3 replicates, read-out: MIC
  MIC: 0.125 mg/L (≈ 0.603 µM)
Haemophilus influenzae; Table 9, 35° C., 24 hours
  MMC: 0.125 µg/mL
Haemophilus influenzae; Table 17, 2 or 3 replicates
  MMC: 0.125 µg/mL
Haemophilus influenzae; [15]
  MIC: 0.125 mg/L (≈ 0.603 µM)
  MMC: 0.125 µg/mL
Rhodotorula rubra [1]; Table 20, […], after 12 weeks continuous exposure, read-out: MIC Final
  MIC: 16 mg/L (≈ 77.2 µM)
Rhodotorula rubra [1]; Table 20, […], parent strain, read-out: MIC Initial
  MIC: 8 mg/L (≈ 38.6 µM)
Rhodotorula rubra [1]; before exposure, MHB, read-out: Standard MIC Initial
  MIC: 8 mg/L (≈ 38.6 µM)
Rhodotorula rubra [1]; to Wk 5
  7-Day MIC Range: 8-32 to Wk 5 μg/mL
[2]
  MMC: 2 µg/mL
[2]; read-out: MIC
  MIC: 2 mg/L (≈ 9.65 µM)
[3]; Table 9, 35° C., 24 hours
  MIC: 32.2 mg/L (≈ 155 µM)
  MMC: 32.16 µg/mL
[3]; Table 17, 2 or 3 replicates
  MIC: 32 mg/L (≈ 154 µM)
  MMC: 32 µg/mL
Rhodotorula rubra [4]; Rhodotorula, 96 h
  MIC: 8 mg/L (≈ 38.6 µM)
Rhodotorula rubra [4]
  MMC: 8 µg/mL
[5]; 1250 mg/kg, 4 + 8 h
  Blood Level of Compound (1), Mean: 27 µg/mL
[5]; 500 mg/kg, 500 mg/kg fasted
  concentration at 4 h: 12 µg/mL
  concentration at 8 h: 14 µg/mL
[5]; 500 mg/kg, 500 mg/kg fed
  concentration at 4 h: 8 µg/mL
  concentration at 8 h: 17 µg/mL
[5]; 1000 mg/kg, 1000 mg/kg fasted
  concentration at 4 h: 26 µg/mL
  concentration at 8 h: 21 µg/mL
[5]; absorption from the gastrointestinal tract
  oral dose reaching the blood: approximately 2%
Staphylococcus aureus
  Size of zone of retardation of the growth: 6.5
[6]
  Average zone of retardation: 5.17
[7]
  Minimal % Compound (1) giving complete inhibition of test culture: 0.015%
Bacteroides fragilis; Table 9, 48 h
  MIC: 16 mg/L (≈ 77.2 µM)
  MMC: 32 µg/mL
Bacteroides fragilis; Table 17, 2 or 3 replicates
  MIC: 16 mg/L (≈ 77.2 µM)
  MMC: 32 µg/mL
Salmonella typhimurium
  Size of zone of retardation of the growth: 7
Klebsiella pneumoniae [8]; Table 9, 35° C., 24 hours
  MIC: 512 mg/L (≈ 2470 µM)
  MMC: >512 µg/mL
Klebsiella pneumoniae [8]; Table 17, 2 or 3 replicates
  MIC: 512 mg/L (≈ 2470 µM)
  MMC: >512 µg/mL
Candida albicans; Candida albicans, 96 h
  MIC: 8 mg/L (≈ 38.6 µM)
Candida albicans
  MMC: 8 µg/mL
[9]; Staphylococcus aureus, 24 h
  MIC: 16 mg/L (≈ 77.2 µM)
[9]; Table 9, 35° C., 24 hours
  MMC: 16 µg/mL
[9]; Table 17, 2 or 3 replicates
  MMC: 16 µg/mL
[10]; Staphylococcus aureus, 24 h
  MIC: 16 mg/L (≈ 77.2 µM)
[10]; Table 9, 35° C., 24 hours
  MMC: 16 µg/mL
[10]; Table 17, 2 or 3 replicates
  MMC: 16 µg/mL
Klebsiella pneumoniae [11]
  Size of zone of retardation of the growth: 5
Cryptococcus neoformans
  MIC: 1 mg/L (≈ 4.83 µM)
Epidermophyton floccosum; Epidermophyton floccosum, 168 h
  MIC: 0.5 mg/L (≈ 2.41 µM)
Epidermophyton floccosum
  MMC: 16 µg/mL
[12]
  Suppression of Growth (+/−): +
Mycobact tub. H.37RV
  MIC: 6.25 mg/L (≈ 30.2 µM)
[13]
  Minimal % Compound (1) giving complete inhibition of test culture: 0.12%
[14]; Campylobacter jejuni, RMITFF3
  MIC: 2 mg/L (≈ 9.65 µM)
[14]
  MMC: 2 µg/mL
